Reference: US20130224855A1, “CULTURE MEDIUM FOR EUKARYOTIC CELLS” (priority 2010, published 2013)
Peptide text beside a SMILES is read from it.

System: IgG expressing CHO cell line (CHO-2: ATCC CRL 11397, producing IgG4)
Assay: Growth and production curves of IgG expressing CHO cells in suspension culture in supplemented chemically defined medium
Format: cell-based, Chinese hamster
Details: for Cell growth (area under curve) after 14 days: dimensionless AUC
Procedure: The cell culture assay was carried out in commercially available IS CHO-CD medium (Irvine Scientific, Cat. No. 91119). […] Penicillin and streptomycin were added to prevent any bacterial growth during the growth assay. The media was supplemented with β-Alanine, γ-glutamyl cysteine, glycyl-glycine, L-homoserine or N-acetyl methionine, all purchased from Sigma Aldrich, Germany, in varying concentrations (1×10^-5 to 1×10^-1% (w/v), see Table 2). The supplemented medium was mixed with a vortex mixture, filtered using a 0.22 μm filter and subsequently used in a growth assay. An IgG expressing CHO cell line was used (CHO-2: ATCC CRL 11397, producing IgG4). The cell lines were grown in the adherent conditions for a few passages and once confluent, they were transferred to animal-free conditions in the supplemented media described in Example 5. […] Chemically defined media with and without added amino acid derivatives were tested. No fresh media was added during the growth assay. Cells were counted using the […] counter (Innovatis, Germany). The cell counts were used to calculate the area under the growth curve and represented as dimensionless area under curve (AUC) values as described in detail in Ling, C. X, Huang, J. and Zhang, H. (2003), International joint conferences on artificial intelligence, pp. 329-341. The supernatant samples were taken every alternate days for the IgG production measurements. IgG production was measured using sandwich ELISA method. […] The cells were visually inspected using a phase contrast microscope (Zeiss Axiovert 25, 400× magnification). […] Only single cells were observed and no aggregation of cells was seen. The cell shape was also positively affected. […] This was in contrast with the observation that a lot of cell aggregates were present in CHO cell cultures grown in chemically defined medium without amino acid derivatives.

[1] = added at 1 × 10^−1 % w/v in IS CHO-CD medium
[2] = added at 1 × 10^−1 % w/v in IS CHO-CD medium, ratio of cumulative IgG (mg/ml) and AUC at day 11
[3] = added at 1 × 10^−2 % w/v in IS CHO-CD medium
[4] = added at 1 × 10^−3 % w/v in IS CHO-CD medium
[5] = added at 1 × 10^−4 % w/v in IS CHO-CD medium
[6] = added at 1 × 10^−5 % w/v in IS CHO-CD medium

Row | Compound | Cell growth (area under curve) after 14 days [1] | Specific IgG production after 11 days [2] | Specific IgG production after 11 days [3] | Cell growth (area under curve) after 14 days [3] | Specific IgG production after 11 days [4] | Cell growth (area under curve) after 14 days [4] | Specific IgG production after 11 days [5] | Cell growth (area under curve) after 14 days [5] | Specific IgG production after 11 days [6] | Cell growth (area under curve) after 14 days [6]
1 | NCCC(=O)O [β-alanine] | 62.5 | 92.8 | 108.6 | 51.3 | 97.1 | 50.6 | – | – | – | –
2 | NCC(=O)NCC(=O)O [Glycyl-glycine] (H-Gly-Gly-OH) | 50.6 | 86.6 | 95.8 | 48.2 | 104.2 | 49.6 | 113.5 | 47.7 | 102.0 | 51.0
3 | N[C@@H](CCO)C(=O)O [L-homoserine] | 45.7 | 122.0 | 72.0 | 59.1 | 96.8 | 39.4 | – | – | – | –
4 | N[C@@H](CCC(=O)N[C@@H](CS)C(=O)O)C(=O)O [γ-glutamyl cysteine] | 46.1 | 78.2 | 105.9 | 42.8 | 68.33 | 58.0 | 77.2 | 47.6 | 72.5 | 58.9
5 | CSCC[C@H](NC(C)=O)C(=O)O [N-acetyl methionine] | 48.6 | 91.9 | 90.4 | 47.9 | 94.4 | 46.0 | 90.3 | 38.6 | 81.3 | 41.2
